Tested on: Colletotrichum musae
Test: Field test on inoculated banana hands: severity and incidence of molds and rots after 21 days storage
Type: in vivo
Conditions: 14 Degrees C., 90% RH
Description: As set forth below, two sample formulations, Formula “C” and Formula “F”, containing paraffin wax, microcrystalline wax, and polybutylene (synthetic butyl rubber) were field tested in a tropical commercial banana operation. The test was designed to test the wax fungicide alternative, “the invention”, versus untreated placebo fruit and identical fruit treated with commercial fungicides. The inoculants were a highly concentrated aqueous Colletotrichum musae spore solution that is grossly more concentrated than actual field processing conditions. […] The test methodology included with four main test groups, each containing a statistically significant number of banana hands (clusters) to compare the relative infestation incidence rate of: • a.) Untreated inoculated fruit. • b.) Modified-wax treated inoculated fruit.—Two Formulas, C and F • c.) Fungicide treated inoculated fruit. • 1.) All of the fruit was inoculated with an aqueous suspension of 20,000 spores per milliliter of Colletotrichum by immersion in said suspension for a minimum of one minute. • 2.) The Formula C and F wax treated fruit was processed by dipping the wet crown of the inoculated banana hands into the molten wax, cooling for one minute, and re-dipping in the molten wax. • 3.) The Fungicide treated fruit was immersed into an aqueous solution of Thiabenzadole at the manufacturer's recommended dosage. • 4. All of the fruit was packaged and stored in a laboratory warehouse for twenty-one days at a temperature of 14 Degrees C. and ninety percent relative humidity. An empirical visual grading scale was employed to record and measure test results for a.) The presence or absence of rots and molds.; and b.) The severity of infestation. Latex staining was also observed and recorded. A visual infestation severity scale of one to five (1-5) was created where: 1=clean crown, and 5=severely rotten crown. After incubation, the banana producer's trained laboratory technicians graded the fruit and the aggregate results were compiled as presented below.

## c1ccc2[nH]c(-c3cscn3)nc2c1 [Thiabenzadole]
Procedure I = Inoculated (20,000 spores/ml Colletotrichum), 1=clean crown, 5=severely rotten crown
  Severity Crown Mold: 3.7 Scale 1-5
Procedure I = Inoculated
  INCIDENCE Crown Mold: 92.2%
  INCIDENCE Crown Rot: 100%
  INCIDENCE Neck Rot: 27.2%
  INCIDENCE Peel Rot: 84%
Procedure I = Inoculated, 1=clean crown, 5=severely rotten crown
  Severity Crown Rot: 3.92 Scale 1-5

From patent US20070184080A1, “Post harvest treatment of crops” (AstraZeneca UK Ltd, priority 2002, published 2007)
